From patent US10980808B2, “Calmodulin inhibitors, Chk2 inhibitors and RSK inhibitors for the treatment of ribosomal disorders and ribosomapathies” (THE CHILDREN'S MEDICAL CENTER CORPORATION, priority 2016, dated 2021)
Structures can show the parent of a compound that is named as a salt.

Legend:
[1] = test system: rps29−/− zebrafish embryos; conditions: previously demonstrated; cited from earlier work
[2] = test system: calcium in lysates of RPS19 knocked down cells; test: colorimetric calcium detection in cellular lysates; format: cell-based
Text: (§1) We hypothesize that the CaM inhibition is indirect, CaM is needed for calcium signaling. […] RSK inhibitor: SL and B1. P70s6K inhibitor: PF. In Summary we show: 1) CaM and Chk2 inhibitors reduce S392 phosphorylation of p53—to a much greater extent during ribosomal protein deficiency 2) CaM and Chk2 inhibitors also decrease P-p70S6K to a much greater extent during RP deficiency 3) p70S6K can directly phosphorylate p53 S392 in vitro 4) Total protein levels of RSK, p70S6K and rps6 are increased ruing RP deficiency in vitro and in vivo 5) RSK2 is increased in our microarray in […] vs WT 24 hpf embryos. Protein validates this upregulation 6) Calcium levels are increased during RP deficiency 7) Blocking the CaM-Calcium signaling (CaM inhibitors) or directly inhibiting RSK or p70S6K (Chk2 inhibitors) leads to a decrease in P-p53 and p53 activity. Reduced p53 activity leads to fewer RBCs undergoing apoptosis, alleviating the anemia.

[3] = test system: p70S6K and RPS6 phosphorylation in cells; test: phosphorylation after calcium chelation in cells; format: cell-based; conditions: chelating calcium in cells
Text: as §1

[4] = test system: Chk2 activation in HT29 cells; conditions: cited from earlier work
[5] = test system: rps29−/− zebrafish embryos; test: hemoglobin (benzidine staining) rescue in rps29-/- zebrafish embryos; format: in vivo; conditions: benzidine staining; dihydrochloride
mouse thymocytes = conditions: cited from earlier work
p70S6K = p70S6K (Homo sapiens, UniProt P23443); test: in vitro kinase profiling (Thermo Fisher SelectScreen), p70S6K; format: biochemical
Text: We asked if CaM and Chk2 inhibitors are blocking specific kinases. The known kinases that phosphorylate S392 are CK2 and p38. […] Thus, the question became what is TFP inhibiting upstream? Is it inhibiting a kinase that phosphorylates S392? We submitted CaM and Chk2 inhibitors for Kinase profiling using Thermo Fisher's SelectScreen.

Chain of p70S6K (P23443 whole entry): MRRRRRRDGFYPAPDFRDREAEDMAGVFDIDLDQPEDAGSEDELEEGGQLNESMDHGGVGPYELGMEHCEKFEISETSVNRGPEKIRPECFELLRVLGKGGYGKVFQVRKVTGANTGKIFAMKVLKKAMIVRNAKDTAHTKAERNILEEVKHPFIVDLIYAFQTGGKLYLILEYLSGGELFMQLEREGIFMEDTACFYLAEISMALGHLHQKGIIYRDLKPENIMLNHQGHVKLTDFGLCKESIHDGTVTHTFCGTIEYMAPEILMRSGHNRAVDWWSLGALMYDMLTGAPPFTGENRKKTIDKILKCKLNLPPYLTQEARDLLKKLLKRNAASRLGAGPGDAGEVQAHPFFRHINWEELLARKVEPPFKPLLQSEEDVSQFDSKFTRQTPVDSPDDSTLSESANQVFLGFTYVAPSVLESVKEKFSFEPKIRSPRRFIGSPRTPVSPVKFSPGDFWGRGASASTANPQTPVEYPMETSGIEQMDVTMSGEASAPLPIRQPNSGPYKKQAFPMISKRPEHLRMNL

SMILES: NCCCCCCNS(=O)(=O)c1cccc2ccccc12 [W-5]
- rescue of the vasculature defect [1]: rescue the vasculature defect

SMILES: CC(=O)OCOC(=O)CN(CC(=O)OCOC(C)=O)c1ccccc1OCCOc1ccccc1N(CC(=O)OCOC(C)=O)CC(=O)OCOC(C)=O [BAPTA-AM]
- calcium levels in cellular lysates [2]: reduce the calcium levels
- RPS6 phosphorylation [3]: reduces
- p70S6K phosphorylation [3]: reduces

SMILES: COc1cc2nc(-c3cc(F)ccc3O)nc(NC3CNC[C@H]3C(C)(C)O)c2cc1OC (some centres unmarked) [CCT, CCT 241533 dihydrochloride]
- Chk2 activation in response to etoposide-induced DNA damage [4]: inhibits
- hemoglobin (Hb) in rps29−/− embryos [5]: rescue Hb
- ionizing radiation-induced apoptosis (mouse thymocytes): blocks
- percent inhibition of in vitro kinase activity, p70S6K (p70S6K): inhibition
